Common to all, as to experiment: Kinase panel enzymatic inhibition assay (Nanosyn)
Assay type in all cases: biochemical
What all share (settings): compound 5 μM; ATP at Km; 30-minute pre-incubation

One assay addresses T1, PDGFRa (Homo sapiens, UniProt P16234).
T1 construct: Nanosyn (contract laboratory that ran the panel)
An outline of the steps:
(§1)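 Single-point screen: compound 5 μM, ATP at Km per kinase, 30 min pre-incubation. Readout by mobility shift (Caliper LabChip), ADP detection or TR-fluorescence. Reported as % inhibition or IC50.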

In a further assay the target is T2, p38a (Homo sapiens, UniProt Q16539).
T2 construct: Nanosyn (contract laboratory that ran the panel)
T2 sequence (Q16539 whole entry): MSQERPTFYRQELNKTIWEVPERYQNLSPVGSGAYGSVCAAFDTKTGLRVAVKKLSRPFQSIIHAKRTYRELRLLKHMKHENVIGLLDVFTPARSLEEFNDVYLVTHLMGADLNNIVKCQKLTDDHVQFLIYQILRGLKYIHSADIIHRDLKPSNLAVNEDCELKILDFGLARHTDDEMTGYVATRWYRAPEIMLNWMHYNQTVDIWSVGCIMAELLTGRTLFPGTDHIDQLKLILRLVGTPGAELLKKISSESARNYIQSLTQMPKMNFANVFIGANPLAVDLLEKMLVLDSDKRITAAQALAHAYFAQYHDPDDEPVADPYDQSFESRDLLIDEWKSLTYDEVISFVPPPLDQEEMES
An outline of the steps:
as §1

Another assay concerns the target T3, ERBB4 (Homo sapiens, UniProt Q15303).
T3 construct: purchased Nanosyn (contract screening)
An outline of the steps:
as §1

The target of a further assay is T4, FYN (Homo sapiens, UniProt P06241).
T4 construct: purchased Nanosyn (contract screening)
Put shortly:
as §1

The target of the next assay is T5, PIKfyve (Homo sapiens, UniProt Q9Y2I7).
T5 construct: Nanosyn (contract laboratory that ran the panel)
T5 sequence (Q9Y2I7 whole entry): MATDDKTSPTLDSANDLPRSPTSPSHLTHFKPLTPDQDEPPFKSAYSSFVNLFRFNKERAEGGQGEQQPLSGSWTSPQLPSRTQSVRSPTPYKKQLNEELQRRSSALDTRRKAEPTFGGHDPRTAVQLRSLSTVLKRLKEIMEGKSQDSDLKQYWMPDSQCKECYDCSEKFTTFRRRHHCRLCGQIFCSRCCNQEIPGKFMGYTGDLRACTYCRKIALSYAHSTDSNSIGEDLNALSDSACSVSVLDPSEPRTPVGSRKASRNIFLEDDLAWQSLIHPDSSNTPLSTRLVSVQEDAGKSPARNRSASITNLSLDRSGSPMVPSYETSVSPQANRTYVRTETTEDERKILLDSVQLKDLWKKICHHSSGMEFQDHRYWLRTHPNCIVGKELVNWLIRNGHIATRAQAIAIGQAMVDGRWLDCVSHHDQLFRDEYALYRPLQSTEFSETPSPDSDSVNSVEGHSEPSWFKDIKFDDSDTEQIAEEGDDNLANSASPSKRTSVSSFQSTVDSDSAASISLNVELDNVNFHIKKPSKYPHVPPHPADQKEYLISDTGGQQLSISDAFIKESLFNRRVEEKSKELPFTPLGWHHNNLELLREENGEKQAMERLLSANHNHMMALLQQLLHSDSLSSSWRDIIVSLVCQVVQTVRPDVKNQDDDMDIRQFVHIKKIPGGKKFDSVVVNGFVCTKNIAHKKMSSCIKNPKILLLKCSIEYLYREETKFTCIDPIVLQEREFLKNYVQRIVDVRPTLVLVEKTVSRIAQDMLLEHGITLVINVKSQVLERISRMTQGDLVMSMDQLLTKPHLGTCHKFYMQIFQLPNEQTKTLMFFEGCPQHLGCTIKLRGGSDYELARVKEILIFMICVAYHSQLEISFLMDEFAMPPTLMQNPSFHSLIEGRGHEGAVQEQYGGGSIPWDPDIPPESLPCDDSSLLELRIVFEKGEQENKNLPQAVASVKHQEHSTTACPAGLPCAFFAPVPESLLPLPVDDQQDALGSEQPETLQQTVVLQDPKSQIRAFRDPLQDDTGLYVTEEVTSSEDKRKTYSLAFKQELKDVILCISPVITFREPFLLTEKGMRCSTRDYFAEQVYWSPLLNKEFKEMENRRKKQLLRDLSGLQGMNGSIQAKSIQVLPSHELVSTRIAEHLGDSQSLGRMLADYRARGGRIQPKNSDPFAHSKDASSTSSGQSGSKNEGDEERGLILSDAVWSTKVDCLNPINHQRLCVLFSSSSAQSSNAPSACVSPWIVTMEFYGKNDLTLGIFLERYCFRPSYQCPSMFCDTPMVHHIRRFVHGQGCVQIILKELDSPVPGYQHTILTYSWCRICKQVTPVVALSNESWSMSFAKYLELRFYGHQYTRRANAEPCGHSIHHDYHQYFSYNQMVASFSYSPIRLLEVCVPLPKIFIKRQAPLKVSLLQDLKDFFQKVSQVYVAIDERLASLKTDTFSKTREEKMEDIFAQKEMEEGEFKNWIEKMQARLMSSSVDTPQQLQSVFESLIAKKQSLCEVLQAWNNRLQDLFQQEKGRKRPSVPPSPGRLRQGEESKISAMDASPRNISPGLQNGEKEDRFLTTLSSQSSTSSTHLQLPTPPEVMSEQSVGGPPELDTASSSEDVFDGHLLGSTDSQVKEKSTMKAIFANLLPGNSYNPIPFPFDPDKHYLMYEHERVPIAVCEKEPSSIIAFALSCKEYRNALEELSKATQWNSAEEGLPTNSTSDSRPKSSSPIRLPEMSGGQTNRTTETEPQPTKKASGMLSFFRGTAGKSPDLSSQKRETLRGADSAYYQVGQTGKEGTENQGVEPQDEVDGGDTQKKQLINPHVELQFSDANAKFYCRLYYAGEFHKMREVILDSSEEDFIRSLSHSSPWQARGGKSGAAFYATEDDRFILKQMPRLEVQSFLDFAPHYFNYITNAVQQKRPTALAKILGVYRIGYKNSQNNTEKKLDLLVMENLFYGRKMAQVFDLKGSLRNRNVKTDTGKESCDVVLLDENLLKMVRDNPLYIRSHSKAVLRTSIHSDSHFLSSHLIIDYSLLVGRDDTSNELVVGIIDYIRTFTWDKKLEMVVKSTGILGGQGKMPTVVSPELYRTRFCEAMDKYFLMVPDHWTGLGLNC
Put shortly: as §1

In the next assay the target is T6, COT1 (Homo sapiens, UniProt P41279).
T6 construct: purchased Nanosyn (contract screening)
An outline of the steps:
as §1

The target in the next assay is T7, ZAK (Homo sapiens, UniProt Q9NYL2).
T7 construct: Nanosyn (contract laboratory that ran the panel)
Put shortly:
as §1

In the next assay the target is T8, SGK3 (Homo sapiens, UniProt Q96BR1).
T8 construct: Nanosyn (contract laboratory that ran the panel)
T8 sequence (Q96BR1 1-496): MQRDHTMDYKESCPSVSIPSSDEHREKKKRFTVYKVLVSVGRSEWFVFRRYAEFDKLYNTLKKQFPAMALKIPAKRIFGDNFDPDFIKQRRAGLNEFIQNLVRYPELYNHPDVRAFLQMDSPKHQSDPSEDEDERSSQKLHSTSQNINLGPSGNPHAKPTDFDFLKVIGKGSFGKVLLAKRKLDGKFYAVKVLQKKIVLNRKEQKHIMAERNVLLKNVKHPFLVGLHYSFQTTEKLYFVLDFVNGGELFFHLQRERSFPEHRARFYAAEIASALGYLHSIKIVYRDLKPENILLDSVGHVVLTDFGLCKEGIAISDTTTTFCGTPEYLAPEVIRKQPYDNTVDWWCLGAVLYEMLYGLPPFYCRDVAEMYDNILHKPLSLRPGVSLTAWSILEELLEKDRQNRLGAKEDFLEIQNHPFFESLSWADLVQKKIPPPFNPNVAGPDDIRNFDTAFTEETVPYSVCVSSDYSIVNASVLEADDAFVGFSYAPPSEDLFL
Put shortly:
as §1

Another assay concerns the target T9, Abl1 (Homo sapiens, UniProt P00519).
T9 construct: purchased Nanosyn (contract screening)
An outline of the steps:
as §1

The next assay addresses T10, PDGFRb (Homo sapiens, UniProt P09619).
T10 construct: Nanosyn (contract laboratory that ran the panel)
Put shortly:
as §1

The target of another assay is T11, SPHK2 (Homo sapiens, UniProt Q9NRA0).
T11 construct: Nanosyn (contract laboratory that ran the panel)
T11 sequence (Q9NRA0 1-654): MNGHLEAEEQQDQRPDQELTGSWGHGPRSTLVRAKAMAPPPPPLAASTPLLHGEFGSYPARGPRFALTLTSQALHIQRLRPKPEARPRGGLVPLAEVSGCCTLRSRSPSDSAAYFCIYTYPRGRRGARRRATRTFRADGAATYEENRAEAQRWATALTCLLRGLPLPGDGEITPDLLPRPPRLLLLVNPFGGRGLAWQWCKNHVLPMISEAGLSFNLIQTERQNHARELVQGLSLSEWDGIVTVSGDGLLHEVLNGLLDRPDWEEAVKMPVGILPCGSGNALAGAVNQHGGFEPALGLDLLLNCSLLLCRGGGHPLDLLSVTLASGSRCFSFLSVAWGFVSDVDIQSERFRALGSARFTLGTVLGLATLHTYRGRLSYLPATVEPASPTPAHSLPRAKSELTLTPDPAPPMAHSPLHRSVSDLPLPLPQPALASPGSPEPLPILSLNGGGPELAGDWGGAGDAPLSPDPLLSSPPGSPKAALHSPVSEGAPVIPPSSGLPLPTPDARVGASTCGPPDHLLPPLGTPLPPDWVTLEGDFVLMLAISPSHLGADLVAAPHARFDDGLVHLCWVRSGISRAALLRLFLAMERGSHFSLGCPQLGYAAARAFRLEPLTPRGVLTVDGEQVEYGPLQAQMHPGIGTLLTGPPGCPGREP
Put shortly:
as §1

In the next assay the target is T12, LYNa (Homo sapiens, UniProt P07948).
T12 construct: purchased Nanosyn (contract screening)
An outline of the steps:
as §1

A further assay has as its target T13, RET (Homo sapiens, UniProt P07949).
T13 construct: Nanosyn (contract laboratory that ran the panel)
Put shortly:
as §1

In the next assay the target is T14, BLK (Homo sapiens, UniProt P51451).
T14 construct: purchased Nanosyn (contract screening)
Put shortly:
as §1

A further assay addresses T15, LYNb (Homo sapiens, UniProt P07948).
T15 construct: purchased Nanosyn (contract screening)
Put shortly:
as §1

The target in a further assay is T16, CRAF (Homo sapiens, UniProt P04049).
T16 construct: purchased Nanosyn (contract screening)
T16 sequence (P04049 whole entry): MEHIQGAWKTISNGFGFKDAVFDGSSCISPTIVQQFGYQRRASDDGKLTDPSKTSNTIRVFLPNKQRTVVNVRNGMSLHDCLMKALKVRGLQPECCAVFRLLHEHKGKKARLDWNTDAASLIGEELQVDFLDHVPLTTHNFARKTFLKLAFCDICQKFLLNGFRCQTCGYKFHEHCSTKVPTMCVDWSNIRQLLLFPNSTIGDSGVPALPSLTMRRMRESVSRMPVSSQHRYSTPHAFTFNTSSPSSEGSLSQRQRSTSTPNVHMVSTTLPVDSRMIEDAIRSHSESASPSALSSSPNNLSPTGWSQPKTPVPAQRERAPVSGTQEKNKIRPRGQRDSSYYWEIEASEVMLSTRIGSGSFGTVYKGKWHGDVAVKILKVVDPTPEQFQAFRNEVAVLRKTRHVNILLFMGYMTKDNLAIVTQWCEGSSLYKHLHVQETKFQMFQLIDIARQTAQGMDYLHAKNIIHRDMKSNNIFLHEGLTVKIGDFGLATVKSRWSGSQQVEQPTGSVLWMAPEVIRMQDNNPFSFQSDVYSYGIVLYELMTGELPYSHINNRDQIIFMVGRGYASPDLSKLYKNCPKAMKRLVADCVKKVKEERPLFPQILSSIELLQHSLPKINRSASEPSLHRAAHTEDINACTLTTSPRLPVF
An outline of the steps: as §1

The next assay deals with T17, SGK2 (Homo sapiens, UniProt Q9HBY8).
T17 construct: Nanosyn (contract laboratory that ran the panel)
T17 sequence (Q9HBY8 1-367): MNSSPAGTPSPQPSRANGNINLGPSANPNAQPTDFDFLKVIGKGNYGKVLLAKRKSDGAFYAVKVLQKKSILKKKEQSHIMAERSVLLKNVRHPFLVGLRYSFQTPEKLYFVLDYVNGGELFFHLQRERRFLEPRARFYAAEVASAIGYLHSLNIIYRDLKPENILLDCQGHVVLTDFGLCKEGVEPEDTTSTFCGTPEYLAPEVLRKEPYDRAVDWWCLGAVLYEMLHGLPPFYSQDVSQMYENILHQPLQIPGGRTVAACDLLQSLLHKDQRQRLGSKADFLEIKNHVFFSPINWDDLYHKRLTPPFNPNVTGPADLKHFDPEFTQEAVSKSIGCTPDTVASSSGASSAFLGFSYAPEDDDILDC
Put shortly:
as §1

These results are taken from patent publication US20240400577A1, “MODULATORS OF PROTEIN KINASES” (VIBLIOME THERAPEUTICS, LLC, priority 2021, published 2024).

T10 sequence (P09619 33-1106): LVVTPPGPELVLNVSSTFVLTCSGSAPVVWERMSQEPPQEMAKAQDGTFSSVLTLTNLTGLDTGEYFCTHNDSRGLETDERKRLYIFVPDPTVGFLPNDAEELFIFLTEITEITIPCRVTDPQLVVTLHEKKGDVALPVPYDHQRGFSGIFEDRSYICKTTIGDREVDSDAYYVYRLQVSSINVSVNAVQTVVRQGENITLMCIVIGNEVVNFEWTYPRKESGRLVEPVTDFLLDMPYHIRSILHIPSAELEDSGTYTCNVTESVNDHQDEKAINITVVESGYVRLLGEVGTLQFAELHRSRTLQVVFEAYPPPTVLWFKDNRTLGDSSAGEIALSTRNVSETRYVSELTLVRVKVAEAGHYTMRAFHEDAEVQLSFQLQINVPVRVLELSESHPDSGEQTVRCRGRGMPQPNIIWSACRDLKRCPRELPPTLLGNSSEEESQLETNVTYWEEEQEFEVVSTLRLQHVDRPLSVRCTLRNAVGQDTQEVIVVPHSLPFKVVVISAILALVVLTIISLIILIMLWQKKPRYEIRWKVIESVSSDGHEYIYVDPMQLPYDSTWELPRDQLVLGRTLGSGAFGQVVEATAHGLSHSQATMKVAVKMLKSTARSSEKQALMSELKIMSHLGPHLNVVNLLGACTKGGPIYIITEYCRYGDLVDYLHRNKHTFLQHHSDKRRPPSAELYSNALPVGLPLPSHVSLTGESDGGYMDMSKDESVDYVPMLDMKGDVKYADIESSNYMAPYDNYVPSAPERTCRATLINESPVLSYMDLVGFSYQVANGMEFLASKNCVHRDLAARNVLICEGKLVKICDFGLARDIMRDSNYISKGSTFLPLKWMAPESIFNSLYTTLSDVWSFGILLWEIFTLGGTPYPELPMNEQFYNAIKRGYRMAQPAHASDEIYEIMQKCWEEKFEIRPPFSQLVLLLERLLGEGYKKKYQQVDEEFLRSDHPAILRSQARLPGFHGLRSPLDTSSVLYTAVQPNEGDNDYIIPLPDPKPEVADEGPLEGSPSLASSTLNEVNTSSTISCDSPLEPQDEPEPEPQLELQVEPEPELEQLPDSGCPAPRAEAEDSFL
T15 sequence (P07948 1-491 isoform P07948-2): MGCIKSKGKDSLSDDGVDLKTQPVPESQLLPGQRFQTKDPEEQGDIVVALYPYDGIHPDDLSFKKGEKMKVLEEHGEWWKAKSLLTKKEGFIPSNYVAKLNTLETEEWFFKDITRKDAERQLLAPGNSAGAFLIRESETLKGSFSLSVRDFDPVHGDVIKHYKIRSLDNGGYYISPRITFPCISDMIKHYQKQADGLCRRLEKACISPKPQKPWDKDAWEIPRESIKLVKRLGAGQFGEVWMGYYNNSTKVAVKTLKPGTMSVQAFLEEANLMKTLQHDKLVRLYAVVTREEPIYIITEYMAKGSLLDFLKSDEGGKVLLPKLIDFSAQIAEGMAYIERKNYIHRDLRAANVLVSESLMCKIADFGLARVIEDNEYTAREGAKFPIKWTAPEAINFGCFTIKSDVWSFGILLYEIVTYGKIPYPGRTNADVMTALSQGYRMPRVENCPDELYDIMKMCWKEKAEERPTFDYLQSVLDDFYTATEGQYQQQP

Take `CNC(=O)c1cc(Oc2ccc(F)c(NC(=O)c3cc([S+](C)[O-])n(-c4ccc(F)cc4)n3)c2)ccn1` (stereo not drawn) [Ex7, 4-(4-fluoro-3-(1-(4-fluorophenyl)-5-(methylsulfinyl)-1H-pyrazole-3-carboxamido)phenoxy)-N-methylpicolinamide]: the inhibition at 5 µM on PDGFRa, against p38a, against ERBB4, at FYN, against PIKfyve and against COT1 was less than 79% throughout. The inhibition at 5 µM against ZAK, against SGK3, at Abl1, against PDGFRb, on SPHK2 and against LYNa was less than 79% throughout. Further, the inhibition at 5 µM against RET was less than 79%; against BLK, less than 79%; at LYNb it was less than 79%; against CRAF, no less than 95%; against SGK2, less than 79%.
In the case of `CSc1cc(C(=O)Nc2cc(Oc3ccnc(C(=O)NC4CNC4)c3)ccc2F)nn1-c1ccc(F)cc1` [Ex8, N-(azetidin-3-yl)-4-(4-fluoro-3-(1-(4-fluorophenyl)-5-(methylthio)-1H-pyrazole-3-carboxamido)phenoxy)picolinamide], the inhibition at 5 µM against PDGFRa was less than 79%; against p38a it was less than 79%; against ERBB4, less than 79%; against FYN, less than 79%; at PIKfyve, less than 79%; against COT1, 90 to 94%. Moreover, the inhibition at 5 µM against ZAK is less than 79%; at SGK3, 80 to 89%; against Abl1, less than 79%; against PDGFRb, less than 79%; on SPHK2, less than 79%; on LYNa, less than 79%. For the same compound, the inhibition at 5 µM at RET was less than 79%; at BLK, less than 79%; on LYNb, less than 79%; against CRAF it was no less than 95%; at SGK2 it was less than 79%.
As for `Cc1ccc(NC(=O)c2cc(S(C)(=O)=O)n(-c3ccc(F)cc3)n2)cc1-c1cc(N2CCOCC2)c(=O)n(C)c1` [Ex12, 1-(4-fluorophenyl)-N-(4-methyl-3-(1-methyl-5-morpholino-6-oxo-1,6-dihydropyridin-3-yl)phenyl)-5-(methylsulfonyl)-1H-pyrazole-3-carboxamide], the inhibition at 5 µM against PDGFRa, at p38a, on ERBB4, against FYN, against PIKfyve and against COT1 was less than 79% each time. In addition, the inhibition at 5 µM against ZAK, against SGK3, against Abl1, against PDGFRb, on SPHK2 and at LYNa was less than 79% throughout. Besides, the inhibition at 5 µM against RET is less than 79%; at BLK, less than 79%; at LYNb, less than 79%; against CRAF, no less than 95%; on SGK2, less than 79%.
Turning to `CCOC(=O)Nc1cn2nc(Nc3cc(NC(=O)c4cc(S(C)(=O)=O)n(-c5ccc(F)cc5)n4)ccc3C)ccc2n1` [Ex15, ethyl (6-((5-(1-(4-fluorophenyl)-5-(methylsulfonyl)-1H-pyrazole-3-carboxamido)-2-methylphenyl)amino)imidazo[1,2-b]pyridazin-2-yl)carbamate], the inhibition at 5 µM is no less than 95% on PDGFRa; no less than 95% on p38a; less than 79% against ERBB4; no less than 95% against FYN; less than 79% against PIKfyve; less than 79% against COT1. Also, the inhibition at 5 µM is less than 79% against ZAK; less than 79% on SGK3; no less than 95% on Abl1; no less than 95% at PDGFRb; less than 79% at SPHK2; no less than 95% against LYNa. For the same compound, the inhibition at 5 µM was no less than 95% against RET; less than 79% on BLK; no less than 95% on LYNb; no less than 95% at CRAF; less than 79% at SGK2.
Regarding `CNC(=O)c1cc(Oc2ccc(NC(=O)c3cc(S(C)(=O)=O)n(-c4ccc(F)cc4)n3)c(F)c2)ccn1` [Ex17, 4-(3-fluoro-4-(1-(4-fluorophenyl)-5-(methylsulfonyl)-1H-pyrazole-3-carboxamido)phenoxy)-N-methylpicolinamide], the inhibition at 5 µM on PDGFRa, at p38a, against ERBB4, against FYN, against PIKfyve and at COT1 was less than 79% each time. The inhibition at 5 µM at ZAK, against SGK3, on Abl1, on PDGFRb, against SPHK2 and against LYNa was less than 79% throughout. In addition, the inhibition at 5 µM against RET, at BLK, at LYNb, against CRAF and at SGK2 was less than 79% in each case.
For `Cc1ccc(NC(=O)c2cc(S(C)(=O)=O)n(-c3ccc(F)cc3)n2)cc1-c1cc(OCCO)nc(N2CCOCC2)c1` [Ex9, 1-(4-fluorophenyl)-N-(3-(2-(2-hydroxyethoxy)-6-morpholinopyridin-4-yl)-4-methylphenyl)-5-(methylsulfonyl)-1H-pyrazole-3-carboxamide], the inhibition at 5 µM on PDGFRa, on p38a, on ERBB4, against FYN, at PIKfyve and against COT1 was less than 79% throughout. In addition, the inhibition at 5 µM against ZAK, on SGK3, at Abl1, against PDGFRb, on SPHK2 and against LYNa was less than 79% in each case. Moreover, the inhibition at 5 µM at RET is less than 79%; against BLK, less than 79%; against LYNb, less than 79%; on CRAF, no less than 95%; against SGK2, less than 79%.

Usually inhibition stands for the share of the control response that was lost under treatment.
